{
  "source": "patent US11999732B2",
  "about": "“P2X3 receptor antagonists” (RECORDATI INDUSTRIA CHIMICA E FARMACEUTICA SPA, priority 2018, dated 2024)",
  "molecular_target": "T1, human P2X3 receptor (Homo sapiens, UniProt P56373)",
  "T1 construct": "expressed in transfected cells; host or cells: CHO-K1",
  "T1 sequence (P56373 1-397)": "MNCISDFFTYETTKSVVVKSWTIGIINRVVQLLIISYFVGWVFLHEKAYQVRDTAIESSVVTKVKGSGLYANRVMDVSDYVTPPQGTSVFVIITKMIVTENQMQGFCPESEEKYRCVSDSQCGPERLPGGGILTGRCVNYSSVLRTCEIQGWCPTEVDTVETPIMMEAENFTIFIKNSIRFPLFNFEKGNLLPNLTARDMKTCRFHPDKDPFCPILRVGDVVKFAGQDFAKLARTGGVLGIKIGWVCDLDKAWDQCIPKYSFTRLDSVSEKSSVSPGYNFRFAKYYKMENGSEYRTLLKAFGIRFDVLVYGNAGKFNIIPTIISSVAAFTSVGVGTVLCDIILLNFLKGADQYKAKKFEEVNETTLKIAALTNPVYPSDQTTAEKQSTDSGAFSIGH",
  "assay": "Calcium luminescence (photoprotein) assay in CHO-K1 cells co-expressing human P2X3 receptor, α,β-Met-ATP stimulation, FLEXSTATION readout",
  "format": "cell-based",
  "summary_of_the_method": "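CHO-K1 cells co-expressing human P2X3 and a Ca2+-sensitive photoprotein, loaded with coelenterazine in Tyrode's buffer (pH 7.4) for 4 h at 37 °C. Compounds injected 4 min before α,β-Met-ATP stimulation; luminescence recorded, IC50 and pseudo-Hill slope from nonlinear regression of inhibition curves.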",
  "key": {"[1]": {"details": "Table 8, human P2X3 receptor antagonist activity, CHO-K1 cells, α,β-Met-ATP, read-out: h-P2X3 IC50"}, "[2]": {"details": "Table 6, human P2X3 receptor antagonist activity, CHO-K1 cells, α,β-Met-ATP, read-out: h-P2X3 IC50"}, "[3]": {"details": "Table 9, human P2X3 receptor antagonist activity, CHO-K1 cells, α,β-Met-ATP, read-out: h-P2X3 IC50"}, "[4]": {"details": "Table 7, human P2X3 receptor antagonist activity, CHO-K1 cells, α,β-Met-ATP, read-out: h-P2X3 IC50"}},
  "note": "pIC50: −log10 of the molar value. Like-named read-outs stand apart in the source and are kept apart here.",
  "data": [
    {"compound": "COCC1CN(c2cnc3c(c2)c(Cc2ccc(Cl)cc2)nn2c(CC(C)C)nnc32)C1", "note": "[Example 128, 6-(4-chlorobenzyl)-8-[3-(methoxymethyl)azetidin-1-yl]-3-(2-methylpropyl)pyrido[2,3-d][1,2,4]triazolo[4,3-b]pyridazine]", "values": [
      {"measurement": "pIC50", "setting": "[1]", "result": 6.24}
    ]},
    {"compound": "COc1ccc(CN2C(=O)N3CC(C4CCCCC4)N=C3c3ncc(N4CCOCC4)cc32)cc1", "note": "(stereo not shown) [Example 23, 2-cyclohexyl-6-(4-methoxybenzyl)-8-(morpholin-4-yl)-2,6-dihydroimidazo[1,2-c]pyrido[2,3-e]pyrimidin-5(3H)-one]", "values": [
      {"measurement": "pIC50", "setting": "[2]", "result": 6.30}
    ]},
    {"compound": "CCN(CC)c1cnc2c(c1)N(Cc1ccc(OC)cc1)C(=O)N1C2=NC(=O)C1C(C)(C)C", "note": "(stereo not shown) [Example 165, 3-tert-butyl-8-(diethylamino)-6-(4-methoxybenzyl)imidazo[1,2-c]pyrido[2,3-e]pyrimidine-2,5(3H,6H)-dione]", "values": [
      {"measurement": "pIC50", "setting": "[3]", "result": 6.15}
    ]},
    {"compound": "COCC1CN(c2cnc3c(c2)n(Cc2ccc(OC)cc2)c(=O)n2c(C)c(C(C)C)nc32)C1", "note": "[Example 92, 6-(4-methoxybenzyl)-8-[3-(methoxymethyl)azetidin-1-y1]-3-methyl-2-(propan-2-yl)imidazo[1,2-c]pyrido[2,3-e]pyrimidin-5(6H)-one]", "values": [
      {"measurement": "pIC50", "setting": "[4]", "result": 6.10}
    ]},
    {"compound": "COc1cc(CN2C(=O)N3CC(C(C)C)N=C3c3ncc(C(=O)N4CCOCC4)cc32)cc(OC)c1", "note": "(stereo not shown) [Example 60, 6-(3,5-dimethoxybenzyl)-8-(morpholin-4-ylcarbonyl)-2-(propan-2-yl)-2,6-dihydroimidazo[1,2-c]pyrido[2,3-e]pyrimidin-5(3H)-one]", "values": [
      {"measurement": "pIC50", "setting": "[2]", "result": 5.96}
    ]},
    {"compound": "COc1ccc(CN2C(=O)N3C(=NC(=O)C3C(C)C)c3ncc(N4CCOCC4)cc32)cc1", "note": "(stereo not shown) [Example 164, 6-(4-methoxybenzyl)-8-(morpholin-4-yl)-3-(propan-2-yl)imidazo[1,2-c]pyrido[2,3-e]pyrimidine-2,5(3H,6H)-dione]", "values": [
      {"measurement": "pIC50", "setting": "[3]", "result": 6.73}
    ]},
    {"compound": "CC(C)CCC1CN2C(=O)N(Cc3ccc(Cl)cc3)c3cc(N4CCOCC4)cnc3C2=N1", "note": "(stereo not shown) [Example 62, 6-(4-chlorobenzyl)-2-(3-methylbutyl)-8-(morpholin-4-yl)-2,6-dihydroimidazo[1,2-c]pyrido[2,3-e]pyrimidin-5(3H)-one]", "values": [
      {"measurement": "pIC50", "setting": "[2]", "result": 6.14}
    ]},
    {"compound": "COc1cc(CN2C(=O)N3CC(C(C)C)N=C3c3ncc(N4CCC(N)CC4)cc32)cc(OC)c1", "note": "(stereo not shown) [Example 42, 8-(4-aminopiperidin-1-yl)-6-(3,5-dimethoxybenzyl)-2-(propan-2-yl)-2,6-dihydroimidazo[1,2-c]pyrido[2,3-e]pyrimidin-5(3H)-one]", "values": [
      {"measurement": "pIC50", "setting": "[2]", "result": 6.72}
    ]},
    {"compound": "Cc1c(C(C)C)nc2c3ncc(N4CC5(COC5)C4)cc3n(Cc3ccc(Cl)cc3)c(=O)n12", "note": "[Example 91, 6-(4-chlorobenzyl)-3-methyl-8-(2-oxa-6-azaspiro[3.3]heptan-6-yl)-2-(propan-2-yl)imidazo[1,2-c]pyrido[2,3-e]pyrimidin-5(6H)-one]", "values": [
      {"measurement": "pIC50", "setting": "[4]", "result": 6.29}
    ]},
    {"compound": "COc1ccc(Cn2c(=O)n3c(C4(C)CC4)nnc3c3ncc(N4CCOCC4)cc32)cc1", "note": "[Example 174, 6-(4-methoxybenzyl)-3-(1-methylcyclopropyl)-8-(morpholin-4-yl)pyrido[2,3-e][1,2,4]triazolo[4,3-c]pyrimidin-5(6H)-one]", "values": [
      {"measurement": "pIC50", "setting": "[3]", "result": 7.11}
    ]},
    {"compound": "O=c1n(Cc2ccc(Cl)cc2)c2cc(N3CCOCC3)cnc2c2nnc(Cc3cccnc3O)n12", "note": "[Example 105, 6-(4-chlorobenzyl)-3-[(2-hydroxypyridin-3-yl)methyl]-8-(morpholin-4-yl)pyrido[2,3-e][1,2,4]triazolo[4,3-c]pyrimidin-5(6H)-one]", "values": [
      {"measurement": "pIC50", "setting": "[4]", "result": 6.18}
    ]},
    {"compound": "COc1cc(Cn2c(=O)n3c(C)c(C)nc3c3ncc(N4CC5(COC5)C4)cc32)cc(OC)c1", "note": "[Example 81, 6-(3,5-dimethoxybenzyl)-2,3-dimethyl-8-(2-oxa-6-azaspiro[3.3]heptan-6-yl)imidazo[1,2-c]pyrido[2,3-e]pyrimidin-5(6H)-one]", "values": [
      {"measurement": "pIC50", "setting": "[4]", "result": 6.57}
    ]},
    {"compound": "COc1ccc(CN2C(=O)N3CC(C4CCC4)N=C3c3ncc(N4CCOCC4)cc32)cc1", "note": "(stereo not shown) [Example 33, 2-cyclobutyl-6-(4-methoxybenzyl)-8-(morpholin-4-yl)-2,6-dihydroimidazo[1,2-c]pyrido[2,3-e]pyrimidin-5(3H)-one]", "values": [
      {"measurement": "pIC50", "setting": "[2]", "result": 6.66}
    ]},
    {"compound": "CC(C)(C)C1C(=O)N=C2c3ncc(N4CCOCC4)cc3N(Cc3ccc(Cl)cc3)C(=O)N21", "note": "(stereo not shown) [Example 68, 3-tert-butyl-6-(4-chlorobenzyl)-8-(morpholin-4-yl)imidazo[1,2-c]pyrido[2,3-e]pyrimidine-2,5(3H,6H)-dione]", "values": [
      {"measurement": "pIC50", "setting": "[2]", "result": 6.96}
    ]},
    {"compound": "COc1cc(Cn2c(=O)n3cc(CC(C)C)nc3c3ncc(N4CCOCC4)cc32)cc(OC)c1", "note": "[Example 74, 6-(3,5-dimethoxybenzyl)-2-(2-methylpropyl)-8-(morpholin-4-yl)imidazo[1,2-c]pyrido[2,3-e]pyrimidin-5(6H)-one]", "values": [
      {"measurement": "pIC50", "setting": "[4]", "result": 6.38}
    ]},
    {"compound": "COc1ccc(CN2C(=O)N3C(=NCC3C(C)C)c3ncc(N4CCOCC4)cc32)cc1", "note": "(stereo not shown) [Example 1, 6-(4-methoxybenzyl)-8-(morpholin-4-yl)-3-(propan-2-yl)-2,6-dihydroimidazo[1,2-c]pyrido[2,3-e]pyrimidin-5(3H)-one]", "values": [
      {"measurement": "pIC50", "setting": "[2]", "result": 5.28}
    ]},
    {"compound": "C=C(C)c1nnc2c3ncc(N4CCOCC4)cc3c(Cc3cc(OC)cc(OC)c3)nn12", "note": "[Example 120, 6-(3,5-dimethoxybenzyl)-8-(morpholin-4-yl)-3-(prop-1-en-2-yl)pyrido[2,3-d][1,2,4]triazolo[4,3-b]pyridazine]", "values": [
      {"measurement": "pIC50", "setting": "[1]", "result": 6.26}
    ]},
    {"compound": "CCC1CN2C(=O)N(Cc3ccc(Cl)cc3)c3cc(N4CCOCC4)cnc3C2=N1", "note": "(stereo not shown) [Example 50, 6-(4-chlorobenzyl)-2-ethyl-8-(morpholin-4-y1)-2,6-dihydroimidazo[1,2-c]pyrido[2,3-e]pyrimidin-5(3H)-one]", "values": [
      {"measurement": "pIC50", "setting": "[2]", "result": 6.55}
    ]},
    {"compound": "O=C1N(Cc2ccc(Cl)cc2)c2cc(N3CCOCC3)cnc2C2=NCC3(CCOCC3)N12", "note": "[Example 41, 6-(4-chlorobenzyl)-8-(morpholin-4-yl)-2,2′,3′,5′,6,6′-hexahydro-5h-spiro[imidazo[1,2-c]pyrido[2,3-e]pyrimidine-3,4′-pyran]-5-one]", "values": [
      {"measurement": "pIC50", "setting": "[2]", "result": 5.48}
    ]},
    {"compound": "CC1(c2nnc3c4ncc(N5CCOCC5)cc4n(Cc4ccc(Cl)cc4)c(=O)n23)CC1", "note": "[Example 102, 6-(4-chlorobenzyl)-3-(1-methylcyclopropyl)-8-(morpholin-4-yl)pyrido[2,3-e][1,2,4]triazolo[4,3-c]pyrimidin-5(6H)-one]", "values": [
      {"measurement": "pIC50", "setting": "running text b1263, read-out: inhibition (human P2X3 receptor)", "result": 7.59}
    ]},
    {"compound": "Cc1ccc(Cc2nn3c(C(C)C)nnc3c3ncc(N4CCOCC4)cc23)cc1", "note": "[Example 115, 6-(4-methylbenzyl)-8-(morpholin-4-yl)-3-(propan-2-yl)pyrido[2,3-d][1,2,4]triazolo[4,3-b]pyridazine]", "values": [
      {"measurement": "pIC50", "setting": "[1]", "result": 6.36}
    ]},
    {"compound": "CC(C)c1nnc2c3ncc(N4CCOCC4)cc3n(Cc3ccc(Cl)cc3)c(=O)n12", "note": "[Example 99, 6-(4-chlorobenzyl)-8-(morpholin-4-yl)-3-(propan-2-yl)pyrido[2,3-e][1,2,4]triazolo[4,3-c]pyrimidin-5(6H)-one]", "values": [
      {"measurement": "pIC50", "setting": "[4]", "result": 6.92}
    ]},
    {"compound": "COc1cc(CN2C(=O)N3CC(c4ccccc4)N=C3c3ncc(N4CCOCC4)cc32)cc(OC)c1", "note": "(stereo not shown) [Example 46, 6-(3,5-dimethoxybenzyl)-8-(morpholin-4-yl)-2-phenyl-2,6-dihydroimidazo[1,2-c]pyrido[2,3-e]pyrimidin-5(3H)-one]", "values": [
      {"measurement": "pIC50", "setting": "[2]", "result": 6.90}
    ]},
    {"compound": "COc1ccc(CN2C(=O)N3CC(C(C)C)N=C3c3ncc(N4CCC(CO)CC4)cc32)cc1", "note": "(stereo not shown) [Example 20]", "values": [
      {"measurement": "pIC50", "setting": "[2]", "result": 5.94}
    ]},
    {"compound": "COc1cc(Cn2c(=O)n3c(C)c(C(C)C)nc3c3ncc(N4CCOCC4)cc32)cc(OC)c1", "note": "[Example 79, 6-(3,5-dimethoxybenzyl)-3-methyl-8-(morpholin-4-yl)-2-(propan-2-yl)imidazo[1,2-c]pyrido[2,3-e]pyrimidin-5(6H)-one]", "values": [
      {"measurement": "pIC50", "setting": "[4]", "result": 7.27}
    ]}
  ]
}
